In patent US8183046B2, “Temperature resistant pH buffers for use at low temperatures” (The Board of Trustees of the University of Illinois, priority 2007, dated 2012):
Values joined by “and” are separate entries in the source; they are usually repeats but may differ in a detail not shown here. Equal values may be shown once. Blank lines part the entries; values can stand above or below the compound they belong to. Residues, ends and D or L forms follow the SMILES beside them.

How the values were obtained:
[1] = Freeze-thaw storage stability of oxacillin solutions in various buffers, HPLC; assay type: physicochemical
[2] = cited from earlier work; for Effective pH Range: buffer without pK index; for pKa values for the single buffers, second value: Table 5, in parentheses; for Effective pH Range (pK1): line labelled pK1; for Effective pH Range (pK2): line labelled pK2; for Effective pH Range (pK3): line labelled pK3
[3] = Temperature dependence of pH of buffer solutions, ratiometric UV-vis (A418/A623) with indicator 1; assay type: physicochemical; conditions: for direction of pH change as the solution is equilibrated at lower temperatures: FIG. 4, 50 mM buffer solutions containing 75% glycerol; for pH at plateau: plateau 150 K to 90 K; for pH at 298 K: single buffers
[4] = cited from earlier work
[5] = cited from earlier work; remark: listed apart in the source
[6] = pH-sensitive dye; cited from earlier work
[7] = Table 3, change in pH with decreasing temperature, pH 6.1 at 298 K

hydrolysis of the antibiotic on storage, versus HEPES:KPhosphate (60:40) buffered solution ([1]; 200 μM in 50 mM BisTris Propane buffer pH 7.0, 193 K, freeze-thaw over eight days): greater hydrolysis | pH-induced hydrolysis under freeze-thaw storage conditions ([1]; 200 μM in 50 mM HEPES:KPhosphate (60:40) pH 7.0, 193 K, eight days): reduced
Compound: Cc1onc(-c2ccccc2)c1C(=O)N[C@@H]1C(=O)N2[C@@H]1SC(C)(C)[C@@H]2C(=O)O [oxacillin]

Compound: O=S(=O)(O)CCCCNC1CCCCC1 [CABS]
Effective pH Range ([2]; Table 2): 10.0–11.4

direction of pH change as the solution is equilibrated at lower temperatures [3]: increases | ΔpH ([3]; Table 3, change in pH with decreasing temperature, pH 7.0 at 298 K): +2.2 | pH at plateau ([3]; Table 3, pH 7.0 at 298 K): 9.2 | pH at 298 K ([3]; Table 3): 7.0
Compound: NC(CO)(CO)CO [Trizma, 2-Amino-2-(hydroxymethyl)-1,3-propanediol]
Effective pH Range ([2]; Table 2): 7.5–9.0

Compound: COc1cccc2c1C(=O)c1c(O)c3c(c(O)c1C2=O)C[C@@](O)(C(=O)CO)C[C@@H]3O[C@H]1C[C@H](N)[C@H](O)[C@H](C)O1 [doxorubicin]
therapeutic activity upon repeated freeze-thaw treatments ([4]; freeze (−20° C.)-thaw (+37° C.), correlates with hydrolysis of the aminoglycoside bond): gradually reduces therapeutic activity | optimum pH for storage stable, ready-to-use formulations ([4]; storage at 4-8° C.): 3.0

Compound: O=P(O)(O)O [KPhosphate, potassium phosphate]
ΔpH over a 208 K range ([3]; 298 K to 90 K, 50 mM buffer, pH 7.0): −0.50 | direction of pH change as the solution is equilibrated at lower temperatures [3]: decreases | pH at plateau ([3]; Table 3, pH 7.0 at 298 K): 6.5 | pH at plateau ([3]; Table 3, pH 8.0 at 298 K): 7.3 | pH at 298 K ([3]; Table 3): 8.0 and 7.0 | ΔpH ([3]; pH 7): −0.5 | ΔpH ([3]; pH 8): −0.7 | pH change ([3]; starting from pH 8.0, indicator 1): ~−0.7 units

ΔpH [3, 7]: +2.1 | pH at plateau ([3]; Table 3, pH 6.1 at 298 K): 8.2 | pH at 298 K ([3]; Table 3): 6.1
Compound: OCC(CO)(CO)NCCCNC(CO)(CO)CO [BIS-TRIS propane, 1,3-bis[tris(hydroxymethyl)methylamino]propane]
Effective pH Range ([2]; Table 2): 6.3–9.5 | pKa at 25° C., pK2 ([2]; Table 2, pK2 or second value printed in the cell): 9.00 | pKa values for the single buffers, second value [2]: 9.0

Compound: O=S(=O)(O)CC(O)CN(CCO)CCO (centres unmarked) [DIPSO]
Effective pH Range ([2]; Table 2): 7.0–8.2

Compound: CC(C)(N)CO [AMP, 2-amino-2-methyl-1-propanol]
Effective pH Range ([2]; Table 2): 8.7–10.4

Compound: CC(=O)O [acetate]
direction of pH change as the solution is equilibrated at lower temperatures [3]: increases

Compound: O=S(=O)(O)CCCCN1CCN(CCO)CC1 [HEPBS]
Effective pH Range ([2]; Table 2): 7.6–9.0

Compound: O=C(O)O [carbonate]
Effective pH Range (pK1) ([2]; Table 2): 6.0–8.0 | Effective pH Range (pK2) ([2]; Table 2): 9.5–11.1

Compound: CC(=O)[O-].[Na+] [Na-Acetate, sodium acetate]
pH at plateau ([3]; Table 3, pH 5.0 at 298 K): 5.4 | pH at 298 K ([3]; Table 3): 5.0 | ΔpH ([3]; pH 5): +0.4

Compound: NC(=O)CNCCS(=O)(=O)O [ACES]
Effective pH Range ([2]; Table 2): 6.1–7.5

ΔpH ([3]; Table 3, change in pH with decreasing temperature, pH 6.0 at 298 K): +1.4 | pH at plateau ([3]; Table 3, pH 6.0 at 298 K): 7.4 | pH at 298 K ([3]; Table 3): 6.0
Compound: O=S(=O)(O)CCN1CCOCC1 [MES, 2-morpholinoethanesulfonic acid]

Compound: N [ammonium hydroxide]
Effective pH Range ([2]; Table 2): 8.8–9.9

Compound: CC(C)(CO)NCC(O)CS(=O)(=O)O (centres unmarked) [AMPSO]
Effective pH Range ([2]; Table 2): 8.3–9.7

Compound: O=C(O)C(O)C(O)C(=O)O (centres unmarked) [Tartrate]
pKa values for the single buffers, second value [2]: (3.00, 4.40)^1

Compound: O=C(O)CC(O)C(=O)O (centres unmarked) [malate]
Effective pH Range (pK1) ([2]; Table 2): 2.7–4.2 | Effective pH Range (pK2) ([2]; Table 2): 4.0–6.0

Compound: O=S(=O)(O)CC(O)CNC1CCCCC1 (centres unmarked) [CAPSO]
Effective pH Range ([2]; Table 2): 8.9–10.3

Compound: CC(N)(CO)CO [AMPD, 2-amino-2-methyl-1,3-propanediol]
Effective pH Range ([2]; Table 2): 7.8–9.7

Compound: O=S(=O)(O)CCCNC(CO)(CO)CO [TAPS]
Effective pH Range ([2]; Table 2): 7.7–9.1

Compound: c1c[nH]cn1 [imidazole]
Effective pH Range ([2]; Table 2): 6.2–7.8

Compound: O=C(O)CC(O)(CC(=O)O)C(=O)O [citrate]
Effective pH Range (pK1) ([2]; Table 2): 2.2–6.5 | Effective pH Range (pK2) ([2]; Table 2): 3.0–6.2 | Effective pH Range (pK3) ([2]; Table 2): 5.5–7.2

direction of pH change as the solution is equilibrated at lower temperatures [3]: increases | ΔpH [3, 7]: +1.6 | pH at plateau ([3]; Table 3, pH 6.1 at 298 K): 7.7 | pH at 298 K ([3]; Table 3): 6.1 | increase of pH upon lowering the temperature ([3]; room temperature to ~170 K, 50 mM, 75% glycerol): about 1.6 pH unit | degree of pH change with temperature, 50% glycerol versus 75% glycerol ([3]; sample containing 50% glycerol, FIG. 6): somewhat larger
Compound: O=S(=O)(O)CCCN1CCOCC1 [MOPS, 3-N-morpholino propansulfonic acid]
Effective pH Range ([2]; Table 2): 6.5–7.9

Compound: O=P(O)(O)OP(=O)(O)O [pyrophosphate]
Effective pH Range ([2]; Table 2): 7.0–9.0

Compound: O=S(=O)(O)CCN1CCN(CCS(=O)(=O)O)CC1 [PIPES]
Effective pH Range ([2]; Table 2): 6.1–7.5

Compound: O=S(=O)(O)CC(O)CN1CCN(CC(O)CS(=O)(=O)O)CC1 (centres unmarked) [POPSO]
Effective pH Range ([2]; Table 2): 7.2–8.5

Compound: phosphate
Effective pH Range (pK1) ([2]; Table 2): 1.7–2.9 | Effective pH Range (pK2) ([2]; Table 2): 5.8–8.0 | Effective pH Range (pK3) ([2]; Table 2): 11.5–13.0

Compound: NCC(=O)O [glycine]
Effective pH Range (pK1) ([2]; Table 2): 2.2–3.6 | Effective pH Range (pK2) ([2]; Table 2): 8.8–10.6

Compound: NCC(=O)NCC(=O)O [glycylglycine] (H-Gly-Gly-OH)
Effective pH Range (pK1) ([2]; Table 2): 2.5–3.8 | Effective pH Range (pK2) ([2]; Table 2): 7.5–8.9 | pKa at 25° C., pK1 ([2]; Table 2, pK1 or first value printed in the cell): 3.14

Compound: O=C(O)CNC(CO)(CO)CO [tricine]
Effective pH Range ([2]; Table 2): 7.4–8.8

Compound: thrombin-activated porcine factor VIII: thrombin-activated porcine factor VIII, heterotrimeric coagulation protein
coagulation activity between pH 7 and 8 ([5]; between pH 7 and 8): sharp decline | state of the protein at pH 6.0 ([5]; pH 6.0 at 4° C. or 20° C.): stable, active, heterotrimer

Compound: O=S(=O)(O)CCNC1CCCCC1 [CHES]
Effective pH Range ([2]; Table 2): 8.6–10.0

Compound: C1CNCCN1 [piperazine]
Effective pH Range (pK1) ([2]; Table 2): 5.0–6.0 | Effective pH Range (pK2) ([2]; Table 2): 9.5–9.8

Compound: O=S(=O)(O)CCCCNC(CO)(CO)CO [TABS]
Effective pH Range ([2]; Table 2): 8.2–9.6

Compound: O=S(=O)(O)CCCNC1CCCCC1 [CAPS]
Effective pH Range ([2]; Table 2): 9.7–11.1

Compound: Cc1c(C2(c3cc(Br)c(O)c(Br)c3C)OS(=O)(=O)c3ccccc32)cc(Br)c(O)c1Br [Bromocresol green]
pKa [6]: 4.6

Compound: O=S(=O)(O)CC(O)CNC(CO)(CO)CO (centres unmarked) [TAPSO]
Effective pH Range ([2]; Table 2): 7.0–8.2
